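Five concentrations, 48 hours, 96-well plates. Here, GI50 denotes the concentration required for 50% inhibition of growth. Definition used: TGI = concentration required for complete inhibition of growth.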
How the values were obtained:
Assay in all cases: DTP human tumour cell line panel, 48 h
[1] = tested on: HT29 colon
[2] = tested on: SNB-75 CNS
[3] = tested on: ACHN renal
[4] = tested on: HCC-2998 colon
[5] = tested on: MOLT-4 leukemia
[6] = tested on: HOP-62 NSCLC
[7] = tested on: OVCAR-5 ovarian
[8] = tested on: SF-268 CNS
[9] = tested on: NCI-H226 lung
[10] = tested on: CAKI-1 renal

Row | Structure (SMILES) | GI50 [1] [µM] | TGI [1] [µM] | GI50 [2] [µM] | TGI [2] [µM] | GI50 [3] [µM] | TGI [3] [µM] | GI50 [4] [µM] | TGI [4] [µM] | GI50 [5] [µM] | TGI [5] [µM] | GI50 [6] [µM] | TGI [6] [µM] | GI50 [7] [µM] | TGI [7] [µM] | GI50 [8] [µM] | TGI [8] [µM] | GI50 [9] [µM] | TGI [9] [µM] | GI50 [10] [µM] | TGI [10] [µM]
1 | COc1cc2c(c(OC)c1)C1c3ccccc3NC(=O)N1CC2 (stereo unspecified) | 3.37 | > 100 | 2.69 | > 100 | 5.48 | > 100 | 3.31 | > 100 | 3.99 | > 100 | 3.28 | > 100 | 4.96 | > 100 | 7.02 | > 100 | 7.24 | > 100 | 4.62 | > 100
2 | CCCC(C)c1cc(Cc2cc(Cl)cc(Cl)c2O)c(O)c(Cc2cc(Cl)cc(Cl)c2O)c1 (stereo unspecified) | 2.83 | 11.2 | 1.86 | 7.7 | 1.99 | 10.9 | 1.42 | 10.5 | 1.53 | 4.83 | 2.7 | 12 | 4.05 | 15 | 1.01 | 20.7 | 1.94 | 6.61 | 1.23 | 10.4
3 | COc1ccc2sc3c(NCCCN(C)C)nc4ccccc4c3c(=O)c2c1 | 1.5 | 3.02 | 1.42 | 2.8 | 1.56 | 2.9 | 1.7 | 3.26 | 1.71 | 3.56 | 1.6 | 3.2 | 1.76 | 3.23 | 1.67 | 3.35 | 1.67 | 3.34 | 1.6 | 2.95
4 | CN(C)C(=O)OC(Cn1cncn1)c1ccc(Cl)cc1Cl (stereo unspecified) |  | > 100 |  | > 100 |  | > 100 |  | > 100 |  | > 100 |  | > 100 |  | > 100 |  | > 100 |  | > 100 |  | > 100
5 | O=C(CN1CCOCC1)Nc1nc(-c2ccc(Cl)cc2)cs1 |  | > 100 |  | 62.6 |  | 79.6 |  | > 100 |  | 42.6 |  | 73.1 |  | > 100 |  | > 100 |  | 60.9 |  | > 100
6 | COc1cccc2c1c(C(=O)C(=O)Nc1cc(C)no1)cn2Cc1ccc(F)cc1 | 3.32 | > 100 | 3.42 | > 73.5 | 15.4 | > 100 | 37 | > 100 | 3.99 | > 60.7 | > 35.9 | > 100 | > 55.5 | > 100 | 8.73 | > 100 | 36.2 | > 100 | 5.92 | > 45.4
7 | CC(CCC(=O)O)[C@H]1CCC2[C@@H]3CC[C@@H]4CC(O)CC[C@]4(C)C3CC[C@@]21C (stereo partly specified) | 46.1 | > 100 | 66.1 | > 100 | 29.3 | > 100 | 22.2 | 61 | 22 | 79 | 37.2 | > 100 | > 100 | > 100 | > 100 | > 100 | 63.5 | > 100 | 26.7 | 72.3
8 | Cc1ccc(N=Nc2c(O)c(C(=O)O)cc3ccccc23)cc1C |  | > 100 |  | > 100 |  | > 100 |  | > 100 |  | > 100 |  | > 100 |  | > 100 |  | > 100 |  | > 100 |  | > 100
9 | CCOC(=O)c1cc(NS(=O)(=O)c2ccccc2)cc(C(=O)OCC)c1 | > 100 | > 100 | > 100 | > 100 | > 100 | > 100 | > 100 | > 100 | > 100 | > 100 | > 100 | > 100 | > 100 | > 100 | > 100 | > 100 | > 100 | > 100 | > 100 | > 100
10 | C#CCOCn1cnc2c(Cl)ncnc21 |  | > 100 |  | > 100 |  | > 100 |  | > 100 |  | > 100 |  | > 100 |  | > 100 |  | > 100 |  | > 100 |  | > 100
11 | Nc1nc2c(c3ncncc13)C(c1cccc(C(F)(F)F)c1)Cc1ncncc1-2 (stereo unspecified) | 4.2 | 15.9 | 3.11 | 43.7 | 7.06 | 41.6 | 11.2 | 48.7 | 4.78 | 34.9 | 7.41 | 47.2 | 11.3 | 31.4 | 5.94 | 37.7 | 9.61 | 50.1 | 4.29 | > 100
12 | C=CCC[CH2][Sn]([c]1ccccc1)([c]1ccccc1)[c]1ccccc1 | 2.25 | 4.73 | 2.49 | 6.88 | 1.66 | 3.07 | 1.69 | 3.11 | 1.26 | 5.27 | 2.25 | 3.99 | 1.12 | 2.35 | 1.26 | 2.71 | 1.74 | 3.33 | 1.52 | 3.18
13 | CCCC(=O)OC1C(C(O)CO)OC2OC(C)(C)OC21 (stereo unspecified) |  | > 100 |  | > 100 |  | > 100 |  | > 100 |  | > 100 |  | > 100 |  | > 100 |  | > 100 |  | > 100 |  | > 100
14 | O=[N+]([O-])C1C2C=CC(C2)[C@H]1c1ccco1 (stereo partly specified) |  | 9.22 |  | > 100 |  | > 100 |  | > 100 |  | > 100 |  | > 100 |  | > 100 |  | > 100 |  | > 100 |  | > 100
15 | COc1ccc2c(c1)/C(=C\c1c(C)nc3sccn13)C(=O)N2 |  | > 100 | 0.372 | > 100 |  | 69.4 | 0.0392 | 8.21 | < 0.0462 |  |  | > 100 | 7.81 | > 100 | 15.7 | > 100 | 6.55 | 74.4 | < 0.0485 | > 100
16 | O=C1[C@H]2ON(c3ccccc3)C(c3ccccc3Cl)[C@H]2C(=O)N1c1ccc(Cc2ccc(N3C(=O)[C@@H]4ON(c5ccccc5)C(c5ccccc5Cl)[C@@H]4C3=O)cc2)cc1 (stereo partly specified) |  | > 100 |  | > 100 |  | > 100 |  | > 100 |  | > 100 |  | > 100 |  | > 100 |  | > 100 |  | > 100 |  | > 100
17 | N#Cc1c(N2CCCC2)[nH]c(=O)c(C(c2c(Cl)cccc2Cl)c2c(O)c(C#N)c(N3CCCC3)[nH]c2=O)c1O | 15.8 | 35.5 | 12.5 | 33 | 16.8 | 34.1 | 12.1 | 25.7 | > 100 | > 100 | 21.2 | 49.6 | 19.2 | 38.3 | 11.9 | 29.3 | 10.9 | 24.4 | 10.7 | 24
18 | CCCCCCCCCCCC(=O)OCC1OC(n2cc(F)c(=O)[nH]c2=O)C(NC(=O)OCc2ccccc2)C(OC(=O)CCCCCCCCCCC)C1O (stereo unspecified) |  | > 100 |  | > 100 |  | > 100 |  | > 100 |  | > 100 |  | > 100 |  | > 100 |  | > 100 |  | > 100 |  | > 100
19 | O=C(/C=C/c1ccccc1)c1cc(Br)ccc1O |  | 31 |  | 28.9 |  | 28.7 |  | 32.2 |  | 36.3 |  | 46.3 |  | 46.3 |  | 34 |  | 31.7 |  | 31.1
20 | CC1C=C(OC(=O)c2ccccc2)C(=O)C(n2cc(F)c(=O)[nH]c2=O)O1 (stereo unspecified) |  | > 100 |  | > 100 |  | > 100 |  | > 100 |  | > 100 |  | > 100 |  | > 100 |  | > 100 |  | > 100 |  | > 100
21 | Cc1cc(N(CCC#N)CCC#N)ccc1N=Nc1cccc(C(=O)O)c1 |  | > 100 |  | > 100 |  | > 100 |  | > 100 |  | > 100 |  | > 100 |  | > 100 |  | > 100 |  | > 100 |  | > 100
22 | CN1CCC(n2cnc(-c3ccc(F)cc3)c2-c2ccnc(NCCO)n2)CC1 | 10 | > 25 | 12.3 | > 25 | 12.1 | > 25 | > 25 | > 25 | > 25 | > 25 | > 25 | > 25 | > 25 | > 25 | 18.2 | > 25 | > 25 | > 25 | > 17.9 | > 25
23 | O=C(NCCO)Nc1ccc(-c2nc(N3CCOCC3)c3cccn3n2)cc1 | 0.496 | > 100 | 0.0445 | 1.08 | 0.0614 | > 100 | 0.488 | > 100 | 0.217 | > 49.2 | 0.122 | 3.85 | 0.138 | 20.7 | 0.164 | > 95.9 | 0.13 | 6.33 | 1.16 | > 100
24 | Cn1cc(-c2ccc3occ(-c4cccc(-c5ccncc5)c4)c3n2)cn1 | 0.356 | > 100 | 0.404 | 13.4 | 0.8 | > 100 | 1.74 | > 100 | 0.582 | > 100 | 0.815 | > 100 | 3.96 | > 100 | 1.46 | > 100 | 1.5 | > 100 | 0.38 | > 100
25 | COc1cc(C(=O)C/C(CCCC(=O)Nc2ccccc2[N+](=O)[O-])=N/NC(=O)c2cc3ccccc3cc2O)ccc1O |  | > 100 |  | > 100 |  | 98.3 |  | > 76.2 |  | 77 |  | > 100 |  | > 100 |  | > 100 |  | > 100 |  | > 100
